Source: patent US7666875B2, “Hydantoin compounds” (Eisai R&D Management Co., Ltd., priority 2005, dated 2010)
Like-named read-outs stand apart in the source and are kept apart here.

Target: T1, human T-bet (Homo sapiens, UniProt Q9UL17)
T1 construct: expressed in transfected cells; host or cells: engineered HEK cells (HEKT-bet)
T1 sequence (Q9UL17 1-535): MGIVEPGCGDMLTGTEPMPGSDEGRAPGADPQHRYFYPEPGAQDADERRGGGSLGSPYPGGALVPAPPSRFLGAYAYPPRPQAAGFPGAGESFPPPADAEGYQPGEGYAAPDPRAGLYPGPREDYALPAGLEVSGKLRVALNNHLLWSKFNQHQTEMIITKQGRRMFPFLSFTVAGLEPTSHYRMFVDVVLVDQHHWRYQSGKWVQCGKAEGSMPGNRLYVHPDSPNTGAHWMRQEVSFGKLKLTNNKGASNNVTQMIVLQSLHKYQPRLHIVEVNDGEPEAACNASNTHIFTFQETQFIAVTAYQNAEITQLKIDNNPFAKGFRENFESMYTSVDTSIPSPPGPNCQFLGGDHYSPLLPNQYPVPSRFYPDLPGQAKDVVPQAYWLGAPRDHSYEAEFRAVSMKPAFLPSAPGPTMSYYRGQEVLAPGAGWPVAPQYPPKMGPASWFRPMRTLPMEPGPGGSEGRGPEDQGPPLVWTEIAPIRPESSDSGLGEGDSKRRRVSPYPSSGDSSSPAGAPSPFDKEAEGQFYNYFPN
Assay: HEKT-bet-luc assay (T-bet dependent luciferase reporter in engineered HEK cells)
Assay type: cell-based
Conditions: HEKT-bet cells, compound 24 hours, IC50 normalized to reference ER-213038, read-out: IC50
Method: HEKT-bet-luc assay: This assay measures a T-bet dependent reporter (luciferase) activity in engineered HEK cells that express a human T-bet and a T-box responsive element driving luciferase reporter. HEKT-bet cells were plated at 2×10^4/well in 96-well plate and compound was added into cell culture for 24 hours. Luciferase activity was measured by adding 50 μl of Steady-Glo reagent (Promega) and samples were read in Victor V reader (PerkinElmer). The IC50 values were calculated utilizing a maximum value corresponding to the amount of luciferase in the absence of a test compound and a minimum value corresponding to a test compound value obtained at maximum inhibition.
Determination of Normalized HEKT-bet IC50 values: Compounds were assayed in microtiter plates. Each plate included a reference compound which was ER-213038. The un-normalized IC50 value for a particular compound was divided by the IC50 value determined for the reference compound in the same microtiter plate to provide a relative potency value. The relative potency value was then multiplied by the established potency of the reference compound to provide the normalized HEKT-bet IC50 value. […] The IC50 values provided herein were obtained using this normalization method.

Compound | IC50 (Table 4) [nM] | IC50 (Table 3) [nM]
COc1cccc(CN2C(=O)N(Cc3ccc(-n4cccn4)cc3)C3(CCN(Cc4cccc5ccccc45)CC3)C2=O)c1 [Example 140] | 127 | 
COCCN1C(=O)N(Cc2cccc(OC)c2)C(=O)C12CCN(Cc1cccc3ccccc13)CC2 [Example 191] | 253 | 
COCN1C(=O)N(/C=C/Cc2ccccc2)C(=O)C12CCN(Cc1cc(OC)cc(OC)c1)CC2 [Example 296] | 586 | 
COCN1C(=O)N(C/C=C/c2ccccc2)C(=O)C12CCN(Cc1cccc3ccccc13)CC2 [Example 206] | 311 | 
C=Cc1cccc(CN2CCC3(CC2)C(=O)N(Cc2cccc(OC)c2)C(=O)N3CCOC)c1 [Example 264] | 500 | 
COc1cc(CN2CCC3(CC2)C(=O)N(Cc2cc(OC)cc(OC)c2)C(=O)N3C)cc(OC)c1 [Example 144] | 134 | 
COCCN1C(=O)N(Cc2cccc(OC)c2)C(=O)C12CCN(Cc1cccc(-c3ccccc3)c1)CC2 [Example 181] | 225 | 
COCCN1C(=O)N(CC#Cc2cccc(OC)c2)C(=O)C12CCN(Cc1ccccc1)CC2 [Example 82] |  | 650
COCCN1C(=O)N(CCCCOc2ccccc2)C(=O)C12CCN(Cc1ccccc1)CC2 [Example 117] |  | 1840
COCCN1C(=O)N(Cc2cccc(OC)c2)C(=O)C12CCN(Cc1cc(OC)c3c(c1)OCO3)CC2 [Example 244] | 432 | 
COCCN1C(=O)N(Cc2ccccc2)C(=O)C12CCN(Cc1cc(OC)cc(OC)c1)CC2 [Example 196] | 268 | 
COCCN1C(=O)N(Cc2cccc(OC)c2)C(=O)C12CCN(Cc1ccc(C)cc1C)CC2 [Example 199] | 279 | 
COCCN1C(=O)N(Cc2cccc(OC)c2)C(=O)C12CCN(Cc1cc(C)c(C)cc1C)CC2 [Example 139] | 125 | 
COCCN1C(=O)N(CCCOc2ccccc2)C(=O)C12CCN(Cc1cccc3ccccc13)CC2 [Example 153] | 151 | 
CCN1C(=O)N(Cc2cccc(OC)c2)C(=O)C12CCN(Cc1cc(OC)cc(OC)c1)CC2 [Example 137] | 124 | 
COCCN1C(=O)N(Cc2cccc(OC)c2)C(=O)C12CCN(Cc1ccccc1C)CC2 [Example 193] | 261 | 
COCCN1C(=O)N(C/C=C/c2ccccc2)C(=O)C12CCN(Cc1cccc3ccccc13)CC2 [Example 131] | 100 | 
COCCN1C(=O)N(Cc2cccc(OC)c2)C(=O)C12CCN(Cc1cccc3c1Cc1ccccc1-3)CC2 [Example 169] | 190 | 
COCCN1C(=O)N(Cc2cccc(OC)c2)C(=O)C12CCN(Cc1cccc(Br)c1)CC2 [Example 159] | 166 | 
COCCN1C(=O)N(Cc2cccc(N(C)C)c2)C(=O)C12CCN(Cc1ccccc1)CC2 [Example 189] | 247 | 
CCN1C(=O)N(Cc2cccc(OC)c2)C(=O)C12CCN(Cc1cc(OC)cc(OC)c1)CC2 [Example 167] | 187 | 
COc1cc(CN2CCC3(CC2)C(=O)N(Cc2cc(OC)cc(OC)c2)C(=O)N3Cc2ccc(-n3cccn3)cc2)cc(OC)c1 [Example 288] | 567 | 
COc1cccc(CN2C(=O)N(Cc3cccc(C#N)c3)C3(CCN(Cc4ccccc4)CC3)C2=O)c1 [Example 98] |  | 1100
COCCN1C(=O)N(C/C=C/Cc2cccc(OC)c2)C(=O)C12CCN(Cc1ccccc1)CC2 [Example 89] |  | 835
COCCN1C(=O)N(Cc2cccc(OC)c2)C(=O)C12CCN(Cc1ccc3cc(OC)ccc3c1)CC2 [Example 135] | 123 | 
COCCN1C(=O)N(C/C=C/c2ccccc2)C(=O)C12CCN(Cc1ccccc1)CC2 [Example 171] | 191 | 

Results, then the molecule that gave them:

IC50 (Table 4) [nM] | IC50 (Table 3) [nM] | Compound
546 |  | CCN1C(=O)N(Cc2cccc(OC)c2)C(=O)C12CCN(Cc1cccc(OC)c1)CC2 [Example 279]
193 |  | COCCN1C(=O)N(Cc2cccc(OC)c2)C(=O)C12CCN(Cc1csc3ccccc13)CC2 [Example 172]
 | 1540 | COCCN1C(=O)N(Cc2cccc(OC)c2)C(=O)C12CCN(CC=C(c1ccccc1)c1ccccc1)CC2 [Example 110]
567 |  | COCCN1C(=O)N(Cc2cccc(OC)c2)C(=O)C12CCN(Cc1c(F)ccc(C)c1Cl)CC2 [Example 289]
 | 1460 | COCCN1C(=O)N(CC(=O)c2ccc3ccccc3c2)C(=O)C12CCN(Cc1ccccc1)CC2 [Example 107]
101 |  | COCCN1C(=O)N(C/C=C/c2ccccc2)C(=O)C12CCN(Cc1cccc(OC)c1)CC2 [Example 132]
344 |  | CCN1C(=O)N(Cc2ccc3ccccc3c2)C(=O)C12CCN(Cc1cccc(OC)c1)CC2 [Example 214]
 | 1320 | COCCN1C(=O)N(Cc2cccc(OC)c2)C(=O)C12CCN(Cc1cc(F)cc3c1OCOC3)CC2 [Example 102]
205 |  | COCCN1C(=O)N(Cc2cccc(OC)c2)C(=O)C12CCN(Cc1cccc(OC)c1)CC2 [Example 178]
447 |  | O=C1N(C/C=C/c2ccccc2)C(=O)C2(CCN(Cc3cccc4ccccc34)CC2)N1CCn1cccc1 [Example 251]
334 |  | COc1cccc(CN2C(=O)N(CCn3cccc3)C3(CCN(Cc4cccc5ccccc45)CC3)C2=O)c1 [Example 211]
366 |  | COCCN1C(=O)N(CCCc2ccccc2OC)C(=O)C12CCN(Cc1ccccc1)CC2 [Example 222]
431 |  | COCCN1C(=O)N(Cc2cccc(-c3ccccc3)c2)C(=O)C12CCN(Cc1ccccc1)CC2 [Example 243]
298 |  | O=C1N(C/C=C/c2ccccc2)C(=O)C2(CCN(Cc3cccc4ccccc34)CC2)N1CCO [Example 204]
374 |  | COCCN1C(=O)N(Cc2cccc(OC)c2)C(=O)C12CCN(Cc1ccc(C)cc1C)CC2 [Example 228]
251 |  | COCCN1C(=O)N(C/C=C/c2ccc(C)cc2)C(=O)C12CCN(Cc1ccccc1)CC2 [Example 190]
 | 757 | COc1cc(CN2CCC3(CC2)C(=O)N(C/C=C/c2ccccc2)C(=O)N3CC=C(C)C)cc(OC)c1 [Example 86]
550 |  | COCCN1C(=O)N(Cc2cccc(OC)c2)C(=O)C12CCN(Cc1ccc(-c3ccccc3)cc1)CC2 [Example 283]
 | 782 | COCCN1C(=O)N(Cc2cccc(OC)c2)C(=O)C12CCN(Cc1c(Cl)cccc1Cl)CC2 [Example 87]

IC50 (Table 4) [nM] | IC50 (Table 3) [nM] | Compound
333 |  | COCCN1C(=O)N(Cc2cccc(OC)c2)C(=O)C12CCN(Cc1cccc3c1OCO3)CC2 [Example 210]
230 |  | COCCN1C(=O)N(Cc2cc(OC)cc(OC)c2)C(=O)C12CCN(Cc1cc(OC)cc(OC)c1)CC2 [Example 183]
25 |  | COc1cc(CN2CCC3(CC2)C(=O)N(C/C=C/c2ccccc2)C(=O)N3C)cc(OC)c1 [Example 121]
528 |  | COCCN1C(=O)N(Cc2cccc(OC)c2)C(=O)C12CCN(Cc1cccc(N(C)C)c1)CC2 [Example 274]
134 |  | COc1cc(CN2CCC3(CC2)C(=O)N(C/C=C/c2ccccc2)C(=O)N3Cc2ccccn2)cc(OC)c1 [Example 143]
243 |  | COCCN1C(=O)N(Cc2ccc3ccccc3c2)C(=O)C12CCN(Cc1cccc3ccccc13)CC2 [Example 187]
371 |  | O=C1N(C/C=C/c2ccccc2)C(=O)C2(CCN(Cc3cccc4ccccc34)CC2)N1Cc1ccncc1 [Example 223]
159 |  | COCCN1C(=O)N(Cc2cccc(OC)c2)C(=O)C12CCN(Cc1cccc(-c3ccc(O)cc3)c1)CC2 [Example 156]
226 |  | O=C1N(C/C=C/c2ccccc2)C(=O)C2(CCN(Cc3cccc4ccccc34)CC2)N1Cc1ccc(-n2cccn2)cn1 [Example 182]
 | 914 | COCCN1C(=O)N(CCCCCCCCO)C(=O)C12CCN(Cc1ccccc1)CC2 [Example 93]
172 |  | COCCN1C(=O)N(Cc2ccc3ccccc3c2)C(=O)C12CCN(Cc1cccc(C)c1)CC2 [Example 162]
184 |  | COCCN1C(=O)N(Cc2ccc3ccccc3c2)C(=O)C12CCN(Cc1cccc(OC)c1)CC2 [Example 166]
598 |  | COCCN1C(=O)N(CCCc2ccccc2)C(=O)C12CCN(Cc1cccc(OC)c1)CC2 [Example 300]
548 |  | COc1cc(CN2CCC3(CC2)C(=O)N(Cc2cc(OC)cc(OC)c2)C(=O)N3Cc2ccc3c(c2)nnn3C)cc(OC)c1 [Example 281]
143 |  | COc1cccc(CN2C(=O)N(C)C3(CCN(Cc4cccc5ccccc45)CC3)C2=O)c1 [Example 148]
317 |  | COCCN1C(=O)N(CCCOc2ccccc2)C(=O)C12CCN(Cc1cccc(C)c1)CC2 [Example 208]
290 |  | COc1cccc(CN2C(=O)N(Cc3cccc(OC)c3)C3(CCN(Cc4cc(OC)cc(OC)c4)CC3)C2=O)c1 [Example 202]
 | 1240 | COCCN1C(=O)N(Cc2ccc(C(=O)c3ccccc3)cc2)C(=O)C12CCN(Cc1ccccc1)CC2 [Example 100]
